Data as given in ChEMBL document CHEMBL1137228, “Benzoxepin-derived estrogen receptor modulators: a novel molecular scaffold for the estrogen receptor” (J Med Chem, 2004).

Tests used:
Estrogen receptor [1] = target: T1, Estrogen receptor (Homo sapiens, UniProt Q92731+P03372); experiment: Inhibition of estrogen receptor positive human breast carcinoma (MCF-7) cell proliferation; assay type: functional
Estrogen receptor [2] = target: T1, Estrogen receptor; experiment: Binding affinity for estrogen receptor of human breast carcinoma (MCF-7) cell line
Estrogen receptor [3] = target: T1, Estrogen receptor; experiment: Binding affinity for estrogen receptor of human breast carcinoma (MCF-7) cell line; 828 +/- 106 […]

Structure (SMILES) | IC50 (Estrogen receptor [1]) [µM] | Ki (Estrogen receptor [2]) [µM] | Ki (Estrogen receptor [3]) [µM]
CCN(CC)CCOc1ccc(C2=C(c3ccccc3)CCOc3ccccc32)cc1 | 14.2 | – | –
CN(C)CCOc1ccc(C2=C(c3ccc(C#N)cc3)CCOc3ccccc32)cc1 | 74.3 | – | –
CN(C)CCOc1ccc(C2=C(c3cccc([N+](=O)[O-])c3)CCOc3ccccc32)cc1 | 64.6 | – | –
c1ccc(C2=C(c3ccc(OCCN4CCOCC4)cc3)c3ccccc3OCC2)cc1 | 7.6 | – | –
c1ccc(C2=C(c3ccc(OCCN4CCCC4)cc3)c3ccccc3OCC2)cc1 | 6.1 | – | –
c1ccc(C2=C(c3ccc(OCCN4CCCCC4)cc3)c3ccccc3OCC2)cc1 | 10.6 | – | –
Cc1cccc(C2=C(c3ccc(OCCN(C)C)cc3)c3ccccc3OCC2)c1 | 33.6 | – | –
COc1cccc(C2=C(c3ccc(OCCN(C)C)cc3)c3ccccc3OCC2)c1 | 56.6 | – | –
CN(C)CCOc1ccc(C2=C(c3ccccc3)CCOc3ccccc32)cc1 | 16.2 | 3.2 | –
COc1ccc(C2=C(c3ccc(OCCN(C)C)cc3)c3ccccc3OCC2)cc1 | 11.1 | – | –
CN(C)CCOc1ccc(C2=C(c3ccc(Cl)cc3)CCOc3ccccc32)cc1 | 18.3 | – | –
Cc1ccc(C2=C(c3ccc(OCCN(C)C)cc3)c3ccccc3OCC2)cc1 | 15.7 | – | 0.828
COc1ccccc1C1=C(c2ccc(OCCN(C)C)cc2)c2ccccc2OCC1 | 11.7 | – | –
